Data reported in publication PMC9127750, “Structure-based design of CDC42 effector interaction inhibitors for the treatment of cancer” (Cell reports, 2022).

Tested on: WM3248 melanoma cells, 486 antibodies
Assay: Reverse phase protein arrays (RPPA);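 on Cyclin.B1.R.V RPPA level: ratio of treated to vehicle (0 µM) normalized linear protein signal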;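 on Cyclin.E1.R.V RPPA level: ratio of treated to vehicle (0 µM) normalized linear protein signal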;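 on DDB.1.R.V RPPA level: ratio of treated to vehicle (0 µM) normalized linear protein signal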;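 on RPPA ACC1.R.C: ratio of treated to vehicle (0 µM) normalized linear protein signal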;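 on RPPA ASNS.R.V: ratio of treated to vehicle (0 µM) normalized linear protein signal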;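 on RPPA AceCS1.R.V: ratio of treated to vehicle (0 µM) normalized linear protein signal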;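 on RPPA Akt1.R.V: ratio of treated to vehicle (0 µM) normalized linear protein signal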;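 on RPPA Atg5.R.C: ratio of treated to vehicle (0 µM) normalized linear protein signal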;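 on RPPA Bim.R.V: ratio of treated to vehicle (0 µM) normalized linear protein signal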
Type: cell-based, Human
Conditions: 20 uM, Average
Description: Pellets were snap frozen in liquid nitrogen and shipped to MD Anderson Cancer Center core RPPA facility for RPPA analysis (Table S5). Three biological replicates for each sample were generated.
Nomenclatures on the RPPA heatmaps: name_of_antibody.species_of_antibody.status_of_antibody. V - antibody validated; C - validation of antibody in progress; Q - antibody nonspecific; E – under evaluation; antibodies raised in M - mouse, G - goat, R - rabbit, or T - rat.

SMILES: CN(C)c1cccc(Nc2cc(-c3ccccc3)nc(C3CCNCC3)n2)c1 [ARN22089, N1,N1-dimethyl-N3-(6-phenyl-2-(piperidin-4-yl)pyrimidin-4-yl)benzene-1,3-diamine]
- Caspase.8.cleaved.R.C RPPA level: 1.025
- Caveolin.1.R.V RPPA level: 0.842
- Cdc6.R.V RPPA level: 0.862
- Cdc42.R.C RPPA level: 1.017
- Chk1.M.C RPPA level: 0.898
- Chk1_pS345.R.C RPPA level: 1.107
- Chk2_pT68.R.C RPPA level: 1.241
- Complex.II.Subunit.M.V RPPA level: 0.945
- Coup.TFII.R.C RPPA level: 0.941
- Cox2.R.C RPPA level: 1.267
- Cox.IV.R.V RPPA level: 0.997
- CtIP.R.V RPPA level: 0.950
- Cyclin.B1.R.V RPPA level: 1.134
- Cyclin.D3.M.V RPPA level: 0.840
- Cyclin.E1.R.V RPPA level: 0.959
- Cyclophilin.F.M.V RPPA level: 0.926
- D.a.Tubulin.R.V RPPA level: 1.029
- DAPK1_pS308.M.C RPPA level: 1.208
- DAPK2.R.C RPPA level: 1.003
- DDB.1.R.V RPPA level: 0.948
- DDR1.R.V RPPA level: 1.002
- DDR1_pY513.R.C RPPA level: 1.125
- DJ1.R.V RPPA level: 0.948
- DM.Histone.H3.R.V RPPA level: 2.021
- DM.K9.Histone.H3.M.V RPPA level: 1.447
- DNA.Ligase.IV.R.C RPPA level: 0.981
- DNA_POLG.R.V RPPA level: 1.025
- RPPA A.Raf.R.V: 1.015
- RPPA A.Raf_pS299.R.C: 1.034
- RPPA ACC1.R.C: 0.857
- RPPA ACLY_pS455.R.V: 1.046
- RPPA ACSL1.R.V: 0.954
- RPPA ACVRL1.R.C: 1.002
- RPPA ADAR1.M.V: 1.149
- RPPA ALKBH5.R.V: 1.061
- RPPA AMPK.a2_pS345.R.V: 1.050
- RPPA AMPKa.R.C: 1.055
- RPPA AMPKa_pT172.R.C: 2.324
- RPPA AR.R.V: 1.058
- RPPA ARID1A.R.C: 1.550
- RPPA ASNS.R.V: 0.982
- RPPA ATM.R.V: 0.922
- RPPA ATM_pS1981.R.V: 1.048
- RPPA ATP5A.M.C: 1.010
- RPPA ATR.R.V: 0.999
- RPPA ATRX.R.C: 1.085
- RPPA ATR_pS428.R.C: 1.058
- RPPA AceCS1.R.V: 0.988
- RPPA Akt1.R.V: 0.884
- RPPA Akt1_pS473.R.V: 1.015
- RPPA Akt2.R.V: 0.884
- RPPA Akt2_pS474.R.C: 1.034
- RPPA Akt.R.V: 0.924
- RPPA Akt_pS473.R.V: 0.837
- RPPA Ambra1_pS52.R.C: 1.060
- RPPA Annexin.I.M.V: 0.985
- RPPA Annexin.VII.M.V: 0.970
- RPPA Atg3.R.V: 0.967
- RPPA Atg4B.R.C: 0.915
- RPPA Atg5.R.C: 0.922
- RPPA Atg7.R.V: 0.846
- RPPA Aurora.A.R.C: 1.195
- RPPA Aurora.ABC_pT288_pT232_pT198.R.C: 0.954
- RPPA Aurora.B.R.V: 1.362
- RPPA Axl.R.V: 0.993
- RPPA B7.H3.R.C: 0.942
- RPPA B7.H4.R.C: 0.993
- RPPA B.Raf.R.C: 0.957
- RPPA BAP1.M.V: 0.964
- RPPA BCL2A1.R.V: 1.025
- RPPA BMK1.Erk5_pT218_Y220.R.V: 0.950
- RPPA BRCA1.M.C: 1.124
- RPPA BRD4.R.V: 1.303
- RPPA Bak.R.C: 1.033
- RPPA Bax.R.V: 1.025
- RPPA Bcl2.R.C: 1.107
- RPPA Bcl.xL.R.V: 1.064
- RPPA Beclin.R.C: 0.977
- RPPA BiP.GRP78.M.C: 0.989
- RPPA Bid.R.C: 0.971
- RPPA Bim.R.V: 1.023
- RPPA DNMT1.R.V: 0.908
- RPPA DRP1.R.V: 0.953
- RPPA DUSP4.R.V: 0.738
- RPPA DUSP6.R.C: 1.449
- RPPA DYRK1B.R.C: 1.005
- RPPA Dvl3.R.V: 1.056
- RPPA E2F1.R.V: 1.239
- RPPA E.Cadherin.R.V: 0.959
- RPPA EGFR.R.V: 1.079
- RPPA EGFR_pY1068.R.C: 0.971
- RPPA EMA.M.C: 0.929
- RPPA ENY2.M.C: 0.931
- RPPA ER.a.R.V: 0.988
- RPPA ER.a_pS118.R.V: 1.453
- RPPA ERCC1.R.C: 1.065
- RPPA ERCC5.R.C: 1.014
- RPPA ERRalpha.R.V: 1.009
- RPPA Elk1_pS383.R.C: 1.100
- RPPA Enolase.1.R.V: 0.939
- RPPA Enolase.2.R.V: 0.991
- RPPA EphA2.R.V: 0.816
- RPPA EphA2_pS897.R.C: 0.726
- RPPA EphA2_pY588.R.C: 1.016
- RPPA Erk5.R.V: 0.946
- RPPA Ets.1.R.V: 1.154
- RPPA FABP5.R.C: 1.025
- RPPA FAK.R.C: 1.003
- RPPA FAK_pY397.R.V: 1.007
- RPPA FANCD2.R.V: 0.924
- RPPA FASN.R.V: 0.845
- RPPA FGF.basic.R.C: 0.992
- RPPA FOXM1.R.V: 1.057
- RPPA FOXO3.R.V: 1.019
- RPPA FRS2.alpha_pY196.R.V: 1.009
- RPPA FTO.R.V: 0.977
- RPPA Fibronectin.R.V: 0.989
- RPPA FoxO3a_pS318_S321.R.C: 1.005
- RPPA G6PD.R.V: 0.983
- RPPA GATA6.R.V: 0.981
- RPPA GCLC.R.C: 0.993
- RPPA GCLM.R.V: 0.999
- RPPA GCN5L2.R.V: 1.002
- RPPA GRB2.R.V: 0.956
- RPPA GSK.3B.R.C: 0.901
- RPPA GSK.3a.b.M.V: 0.957
- RPPA GSK.3a.b_pS21_S9.R.V: 1.052
- RPPA Gli1.R.C: 0.953
- RPPA Gli3.R.C: 1.116
- RPPA Glucocorticoid.Receptor.R.V: 1.130
- RPPA Glutaminase.R.C: 1.024
- RPPA Grp75.R.C: 1.172
- RPPA Gys.R.V: 1.003
- RPPA Gys_pS641.R.V: 0.884
- RPPA H2AX_pS139.R.C: 1.441
- RPPA H2AX_pS140.M.C: 1.148
- RPPA HER2.M.V: 0.983
- RPPA HER2_pY1248.R.V: 1.026
- RPPA HER3.R.V: 0.916
- RPPA HER3_pY1289.R.C: 1.009
- RPPA HES1.R.V: 1.049
- RPPA Heregulin.R.V: 1.013
- RPPA X4E.BP1.R.V: 1.246
- RPPA X4E.BP1_pS65.R.V: 0.859
- RPPA X4E.BP1_pT37_T46.R.V: 0.868
- RPPA X14.3.3.zeta.R.V: 0.922
- RPPA X14.3.3βR.V: 1.078
- RPPA X14.3.3εM.C: 0.929
- RPPA X53BP1.R.V: 1.047
- RPPA b.Actin.R.C: 1.098
- RPPA b.Catenin.R.V: 0.957
- RPPA c.Abl.R.V: 1.129
- RPPA c.Abl_pY412.R.C: 1.034
- RPPA c.IAP2.R.C: 1.063
- RPPA eEF2K.R.V: 1.262
- RPPA eIF4E.R.V: 1.164
- RPPA eIF4E_pS209.R.V: 1.101
- RPPA eIF4G.R.C: 1.116
- RPPA level HLA.DQA1.R.V: 1.019
- RPPA level HLA.DR.DP.DQ.DX.R.C: 1.117
- RPPA level HNRNPK.R.V: 1.028
- RPPA level HSP27.M.C: 0.864
- RPPA level HSP60.R.V: 1.000
